The text below walks through data of patent US5128362A, “1-aminomethyl-1,2,3,4-tetrahydronaphthalenes” (Abbott Laboratories, priority 1990, dated 1992).

Where a name gives a salt, the structure may show the parent alone. Read-outs that look alike come from different tables or passages of the source.

Assay [1] has as its target T1, alpha 2 receptor (Rattus norvegicus, UniProt P22909).
T1 construct: rat cerebral cortices; from tissue; host or cells: rat cerebral cortices
T1 sequence (P22909 1-465): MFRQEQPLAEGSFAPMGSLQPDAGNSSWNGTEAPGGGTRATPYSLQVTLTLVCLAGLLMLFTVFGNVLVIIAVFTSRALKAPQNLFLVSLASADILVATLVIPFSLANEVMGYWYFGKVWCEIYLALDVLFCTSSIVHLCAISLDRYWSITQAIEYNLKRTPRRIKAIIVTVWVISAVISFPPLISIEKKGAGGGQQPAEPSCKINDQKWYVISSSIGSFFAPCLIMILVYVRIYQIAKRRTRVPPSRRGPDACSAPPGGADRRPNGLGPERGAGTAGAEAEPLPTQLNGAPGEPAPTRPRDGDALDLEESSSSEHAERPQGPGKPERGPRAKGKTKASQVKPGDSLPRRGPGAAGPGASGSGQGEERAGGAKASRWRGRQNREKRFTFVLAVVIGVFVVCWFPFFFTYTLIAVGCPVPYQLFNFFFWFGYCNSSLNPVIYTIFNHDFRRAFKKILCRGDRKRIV
As to the kind of experiment: Radioligand binding, [3H]rauwolscine, rat cerebral cortices. Here is the method:
(§1) The compounds were assessed for alpha-adrenergic receptor subtype selectivity by use of radioligand binding techniques as described previously (DeBernardis et. al. J. Med. Chem. 28, 1398 (1985)).

The subject of assay [2] is alpha 2 receptor. The assay is described as above. The note with it: Ki alpha 1/Ki alpha-2. Here is the method:
as §1

Take `CCN(CCc1ccco1)CC1CCCc2cc(OC)ccc21` (stereo not shown) [Example 43, 1-((N-Ethylamino)methyl-N-(2-(2-furyl)ethyl))-6-methoxy tetralin hydrochloride]: the Ki at alpha 2 receptor [1] (read-out: Ki alpha-2) was determined as 6 nM.
Still for that read-out and setting: the figure for `CCCN(CCc1cccs1)CC1CCCc2cc(OC)ccc21` (stereo not shown) [Example 58, 1-((N-Propylamino)methyl)-N-(2-(2-thienyl)ethyl))-6-methoxy tetralin hydrochloride] is 18 nM.
Take `COc1ccc2c(c1)CCCC2CN(C)CCc1cccn1C` (stereo not shown) [Example 12, 1-((N-Methylamino)methyl-N-(2-(N-methyl-2-pyrrolyl)-ethyl))-6-methoxy tetralin fumarate]: the Ki on alpha 2 receptor [1] (read-out: Ki alpha-2) stood at 5 nM.
On the same count and under the same terms, the figure for `CN(CCc1cccs1)CC1CCCc2cc(Cl)ccc21` (stereo not shown) [Example 49, 1-((N-Methylamino)methyl-N-(2-(2-thienyl)ethyl))-6-chloro tetralin hydrochloride] is 10 nM; for `CN(CCc1cccc(N)c1)CC1CCCc2cc(O)ccc21` (stereo not shown) [Example 68, 1-((N-Methylamino)methyl-N-(2-(m-aminophenyl)ethyl))-6-hydroxy tetralin dihydrobromide] it is 6 nM.
`Fc1ccc2c(c1)CCCC2CN1CCC(c2cccs2)C1` (stereo not shown) [Example 149, 6-Fluoro-1-(3-(2-thienyl)pyrrolidino-1-methyl) tetralin methanesulfonate]: in the assay on alpha 2 receptor [2], the “alpha-2 - Selectivity Ki alpha 1/Ki alpha-2” value was found to be 45. Besides, the Ki at alpha 2 receptor [1] (rat cerebral cortices, [3H]rauwolscine, read-out: Ki alpha-2) was 4.9 nM.
For the compound `COc1ccc2c(c1)CCCC2CN(C)CCc1cccs1` (stereo not shown) [Example 5, 1-((N-Methylamino)methyl-N-(2-(2-thienyl)ethyl))-6-methoxy tetralin methanesulfonate], the Ki at alpha 2 receptor [1] (read-out: Ki alpha-2) was 0.8 nM.
The same measure, in the same setting: then `COc1ccc2c(c1)CCC2CN(C)CCc1cccs1` (stereo not shown) [Example 37, 1-((N-Methylamino)methyl-N-(2-(2-thienyl)ethyl))-5-methoxy indane hydrochloride], with 3.7 nM; and `CN(CCc1cccc(F)c1)CC1CCCc2c1ccc(O)c2O` (stereo not shown) [Example 85, 1-((N-Methylamino)methyl-N-(2-(m-fluorophenyl)ethyl))-5,6-dihydroxy tetralin hydrochloride], with 1.5 nM; and `COc1ccc2c(c1)CCCC2CN(C)CCc1ccsc1` (stereo not shown) [Example 6d, 1-((N-methylamino)methyl-N-(2-(3-thienyl)ethyl))-6-methoxy tetralin hydrochloride], with 1.5 nM.
The same measure, in the same setting: the figure for `CN(CCc1cccs1)CC1CCCc2cc(O)ccc21` (stereo not shown) [Example 7, 1-((N-Methylamino)methyl-N-(2-(2-thienyl)ethyl))-6-hydroxy tetralin hydrochloride] is 1.6 nM; for `COc1ccc2c(c1OC)CCCC2CN(C)CCc1cccs1` (stereo not shown) [Example 86, 1-((N-Methylamino)methyl-N-(2-(2-thienyl)ethyl))-5,6-dimethoxy tetralin hydrochloride] it is 3 nM; for `CN(CCc1ccccc1)CC1CCCc2ccccc21` (stereo not shown) [Example 88, 1-((N-Methylamino)methyl-N-(2-phenethyl)) tetralin hydrochloride] it is 2 nM.
The same measure, in the same setting: then `CN(CCc1cccs1)CC1CCCc2c1ccc1c2OCCO1` (stereo not shown) [Example 30, 1-((N-Methylamino)methyl-N-(2-(2-thienyl)ethyl))-5,6-ethylenedioxy tetralin hydrochloride], with 4 nM.
As to `CCN(CCc1cccc(F)c1)CC1CCCc2c1ccc1c2OCO1` (stereo not shown) [Example 165, 1-((N-Ethylamino)methyl-N-(2-m-fluorophenethyl))-5,6-methylenedioxy tetralin hydrochloride], the Ki on alpha 2 receptor [1] (read-out: Ki alpha-2) was 3.5 nM.
On the same count and under the same terms, the figure for `COc1ccc2c(c1)CCCC2CN(C)CCc1cccc(N)c1` (stereo not shown) [Example 67, 1-((N-Methylamino)methyl-N-(2-(m-aminophenyl)ethyl))-6-methoxy tetralin dihydrochloride] is 6 nM; for `CCN(CCc1cccc(F)c1)CC1CCCc2cc(OC)ccc21` (stereo not shown) [Example 42, 1-((N-Ethylamino)methyl-N-(2-(m-fluorophenyl)ethyl))-6-methoxy tetralin hydrochloride] it is 6.6 nM; for `CN(CCc1cccs1)CC1CCCc2ccccc21` (stereo not shown) [Example 22, 1-((N-Methylamino)methyl-N-(2-(2-thienyl)ethyl)) tetralin hydrochloride] it is 1.3 nM.
With `CCN(CCc1cccs1)CC1CCCc2cc(OC)ccc21` (stereo not shown) [Example 41, 1-((N-Ethylamino)methyl-N-(2-(2-thienyl)ethyl))-6-methoxy tetralin hydrochloride], the Ki at alpha 2 receptor [1] (read-out: Ki alpha-2) stood at 2.9 nM.
Still for that read-out and setting: then `COc1cc2c(cc1C)C(CN(C)CCc1ccco1)CCC2` (stereo not shown) [Example 128, 1-((N-Methylamino)methyl-N-(2-(2-furyl)ethyl))-methoxy-7-methyl tetralin hydrochloride], with 8 nM.
On the same count and under the same terms, the figure for `COc1ccc2c(c1)CCCC2CN(C)CCc1cccc(O)c1` (stereo not shown) [Example 83, 1-((N-Methylamino)methyl-N-(2-(m-hydroxyphenyl)ethyl))-6-methoxy tetralin hydrochloride] is 8 nM; for `COc1ccc2c(c1)CCCC2CN(C)CCc1cccc(F)c1` (stereo not shown) [Example 6b, 1-((N-methylamino)methyl-N-(2-(m-fluorophenyl)ethyl))-6-methoxy tetralin hydrochloride] it is 5 nM.
Same read-out and setting: then `COc1cc2c(c(OC)c1)C(CN(C)CCc1cccs1)CCC2` (stereo not shown) [Example 26, 1-((N-Methylamino)methyl-N-(2-(2-thienyl)ethyl))-6,8-dimethoxy tetralin hydrochloride], with 0.6 nM.
Turning to `CN(CCc1cccc(F)c1)CC1CCCc2ccccc21` (stereo not shown) [Example 70, 1-((N-Methylamino)methyl-N-(2-(m-fluorophenyl)ethyl))-tetralin hydrochloride], the Ki on alpha 2 receptor [1] (read-out: Ki alpha-2) came out at 5 nM.
The same measure, in the same setting: then `CN(CCc1cccc(O)c1)CC1CCCc2cc(O)ccc21` (stereo not shown) [Example 82, 1-((N-Methylamino)methyl-N-(2-(m-hydroxyphenyl)ethyl))-6-hydroxy tetralin hydrochloride], with 4 nM; and `Fc1ccccc1C1CCN(CC2CCCc3c2ccc2c3OCO2)C1` (stereo not shown) [Example 176a, 5.6-Methylenedioxy-1-(3-(o-fluorophenyl)pyrrolidino-1-methyl) tetralin methanesulfonate], with 0.6 nM; and `Cc1cc(O)c(O)c2c1C(CN(C)CCc1cccc(F)c1)CCC2` (stereo not shown) [Example 34, 1-((N-Methylamino)methyl-N-(2-(m-fluorophenyl)ethyl))-5,6-dihydroxy-8-methyl tetralin hydrobromide], with 2.6 nM.
For `COc1cc2c(cc1F)C(CN(C)CCc1ccco1)CCC2` (stereo not shown) [Example 141, 1-((N-methylamino)methyl-N-(2-(2-furyl)ethyl))-6-methoxy-7-fluoro tetralin methanesulfonate], the Ki at alpha 2 receptor [1] (read-out: Ki alpha-2) came out at 4.8 nM.
The same measure, in the same setting: the figure for `CN(CCc1cccs1)CC1CCCc2c1ccc(O)c2I` (stereo not shown) [Example 115, 1-((N-Methylamino)methyl-N-(2-(2-thienyl)ethyl))-5-iodo-6-hydroxy tetralin hydrochloride] is 3 nM; for `CN(CCc1ccccc1)CC1CCCc2cc(N)ccc21` (stereo not shown) [Example 114, 1-((N-Methylaminomethyl-N-(2-phenylethyl))-6-aminotetralindihydrochloride] it is 5.7 nM; for `CN(CCc1cccs1)CC1CCCc2c1ccc1c2OCO1` (stereo not shown) [Example 23, 1-((N-Methylamino)methyl-N-(2-(2-thienyl)ethyl))-5,6-methylenedioxy tetralin hydrochloride] it is 1.7 nM.
At alpha 2 receptor [1], `COc1ccc2c(c1)CCCC2CN(C)CCC1CCCC1` (stereo not shown) [Example 6f, 1-((N-methylamino)methyl-N-(2-(cyclopentyl)ethyl))-6-methoxy tetralin hydrochloride] gave an inhibitory constant (Ki) of 6.5 nM.
Take `CCN(CCc1cccs1)CC1CCCc2c1ccc1c2OCO1` (stereo not shown) [Example 164, 1-(N-Ethylamino)methyl-N-(2-(2-thienyl)ethyl))-5,6-methylenedioxy tetralin hydrochloride]: the inhibition constant Ki at alpha 2 receptor [1] (read-out: Ki alpha-2) came out at 3.7 nM.
Still for that read-out and setting: then `c1csc(C2CCN(CC3CCCc4c3ccc3c4OCO3)C2)c1` (stereo not shown) [Example 144, 5,6-Methylenedioxy-1-(3-(2-thienyl)pyrrolidino-1-methyl) tetralin methanesulfonate], with 1.2 nM; and `CCN(CCc1ccsc1)CC1CCCc2cc(OC)ccc21` (stereo not shown) [Example 44, 1-((N-Ethylamino)methyl-N-(2-(3-thienyl)ethyl))-6-methoxy tetralin hydrochloride], with 5.6 nM; and `CCN(CCc1cccs1)CC1CCCc2c1ccc1c2OCCO1` (stereo not shown) [Example 168, 1-((N-Ethylamino)methyl-N-(2-(2-thienyl)ethyl))-5,6-ethylenedioxy tetralin hydrochloride], with 6.6 nM.
For the compound `COc1ccc2c(c1)C(CN(C)CCc1cccs1)CCC2` (stereo not shown) [Example 27, 1-((N-Methylamino)methyl-N-(2-(2-thienyl)ethyl))-7-methoxy tetralin hydrochloride], the inhibitory constant (Ki) at alpha 2 receptor [1] (read-out: Ki alpha-2) was 2 nM.
On the same count and under the same terms, then `CN(CCc1cccs1)CC1CCCc2c1ccc(O)c2O` (stereo not shown) [Example 87, 1-((N-Methylamino)methyl-N-(2-(2-thienyl)ethyl))-5,6-dihydroxy tetralin hydrochloride], with 1.6 nM; and `CN(CCc1cccc(F)c1)CC1CCCc2c1ccc1c2OCO1` (stereo not shown) [Example 166, 1-((N-Methylamino)methyl-N-(2-m-fluorophenethyl))-5,6-methylenedioxy tetralin methanesulfonate], with 4.5 nM.
